test system: nitrilase SEQ ID NOS:385, 386, obtained from an environmental sample; assay: Effect of reaction components on nitrilase activity (2-chloromandelonitrile hydrolysis, non-chiral HPLC); assay type: biochemical, Unknown (obtained from an environmental sample); settings: 5 mM additive; 25 mM 2-chloromandelonitrile, 0.1 M phosphate buffer pH 8, 37°C
Text: A vital part of an investigation into process optimization of an enzyme involves the determination of the effects of any compounds which could be present in the enzymatic reaction. For SEQ ID NOS:385, 386, these components were established as the starting material and equilibrium product of the cyanohydrin, 2-chlorobenzaldehyde; the product, 2-chloromandelic acid and the contaminant detected in the substrate, 2-chlorobenzoic acid. […] The presence of trace amounts of triethylamine was also found to be tolerable to the enzyme.
The effect of the various reaction components on the activity of SEQ ID NOS:385, 386 was assessed by addition of various levels of possible inhibitors to the enzyme reaction. […]
• (i) Activity: The effect of the process components on the activity of the enzymes was established by addition of the individual components, 2-chlorobenzaldehyde, 2-chlorobenzoic acid or 2-chloromandelic acid, to the enzymatic reaction. […] The samples were analysed by non-chiral HPLC. • (ii) Stability: The stability of the enzymes to process conditions was monitored by incubation of the enzymes in the presence of the reaction components, 2-chlorobenzaldehyde and 2-chloromandelic acid for predetermined time periods, prior to assay of the enzyme activity under standard conditions. […]

Molecule | activity lost upon addition to the reaction
O=C(O)c1ccccc1Cl [2-chlorobenzoic acid] | ~40%
O=Cc1ccccc1Cl [2-chlorobenzaldehyde] | Approximately 70%

test system: nitrilase SEQ ID NOS:385, 386 (nitrilase I), obtained from an environmental sample; assay: High throughput nitrilase activity assay, turnover frequency on mandelonitrile derivatives; assay type: biochemical, Unknown (obtained from an environmental sample); settings: 25 mM substrate, 0.12 mg/mL enzyme, 10% MeOH (v/v) 0.1 M phosphate buffer, 37°C, pH 8; 5 min timepoint
Method: The nitrilase library was screened for activity and enantioselectivity in the hydrolysis of mandelonitrile (3a, Ar = phenyl) to mandelic acid. […] Under standard conditions using 25 mM 3a and 0.12 mg/mL enzyme in 10% MeOH (v/v) 0.1 M phosphate buffer at 37°C and pH 8, (R)-mandelic acid was formed quantitatively within 10 min and with 98% ee. To confirm synthetic utility, the reaction was performed using 1.0 g 3a (50 mM) and 9 mg nitrilase (0.06 mg/mL nitrilase I); after 3 h (R)-mandelic acid was isolated in high yield (0.93 g, 86%) and again with 98% ee. [drawing 19] Table 13. SEQ ID NOS:385, 386-catalyzed production of mandelic acid derivatives and analogues 4a
(§1) Activity assays were conducted using 25 mM (-3 mg/mL) substrate, 0.1 mg/mL nitrilase in 0.25 mL of assay solution. Assay solutions consisted of 0-10% (v/v) MeOH in 0.1 M sodium phosphate buffer solution at pH 7 to 9 and temperatures 37°C or 22°C. Specific activities were measured at 5 min transformation time point, unless otherwise noted, and are expressed in units µmol mg^-1 min^-1. Enantiomeric excess and conversion rates were determined by high throughput HPLC analysis comparing enzyme product concentration to standard curves of racemic acid products. Analytical conditions for the products are tabulated below.

Molecule | TOF (turnover frequency)
N#CC(O)c1ccccc1Br (stereo not shown) [2-bromomandelonitrile] | 5.6 mol product/mol catalyst/sec
N#CC(O)c1cccc(Br)c1 (stereo not shown) [3-bromomandelonitrile] | 1.7 mol product/mol catalyst/sec
N#CC(O)c1cccnc1 (stereo not shown) [3-pyridyl cyanohydrin] | 18.6 mol product/mol catalyst/sec
N#CC(O)c1ccccc1Cl (stereo not shown) [2-chloro mandelonitrile] | 1.7 mol product/mol catalyst/sec
N#CC(O)c1ccsc1 (stereo not shown) [3-thienyl cyanohydrin] | 16.8 mol product/mol catalyst/sec
N#CC(O)c1cccc(Cl)c1 (stereo not shown) [3-chloromandelonitrile] | 3.4 mol product/mol catalyst/sec
N#CC(O)c1ccccc1 (stereo not shown) [mandelonitrile] | 28 mol product/mol catalyst/sec
Cc1ccccc1C(O)C#N (stereo not shown) [2-methylmandelonitrile] | 5.1 mol product/mol catalyst/sec
N#CC(O)c1ccc(F)cc1 (stereo not shown) [4-fluoromandelonitrile] | 11.8 mol product/mol catalyst/sec

same assay, conditions: entries 8-9: pH 9 and 5 mM substrate concentration; otherwise standard conditions

Molecule | TOF (turnover frequency)
N#CC(O)c1cccc2ccccc12 (stereo not shown) [1-naphthyl cyanohydrin] | 2.8 mol product/mol catalyst/sec
N#CC(O)c1ccc2ccccc2c1 (stereo not shown) [2-naphthyl cyanohydrin] | 2.8 mol product/mol catalyst/sec

test system: Nitrilase II, SEQ ID NOS:103, 104, obtained from an environmental sample; assay: High throughput nitrilase activity assay, turnover frequency on aryl acetaldehyde cyanohydrins; assay type: biochemical, Unknown (obtained from an environmental sample); settings: conditions as in Table 13 (25 mM substrate, 10% MeOH, 37°C, pH 8), except 0.016 mg/mL nitrilase
Text: We next examined the preparation of aryllactic acid derivatives 6 through hydrolysis of the corresponding cyanohydrins 5. Phenyllactic acid and derivatives serve as versatile building blocks for the preparation of numerous biologically active compounds. (Coppola, G.M.; Schuster, H.F. Chiral α-Hydroxy Acids in Enantioselective Synthesis; Wiley-VCH: Weinheim, Germany: 1997.) Upon screening our nitrilase library against the parent cyanohydrin 5a (Ar= phenyl), we found several enzymes that provided 6a with high enantiomeric excess. One enzyme, SEQ ID NOS: 103, 104, was further characterized. […] The highest [drawing 20] enantioselectivity previously reported for biocatalytic conversion of 5 to 6 was 75% ee achieved through a whole cell transformation using a Pseudomonas strain. (Hashimoto, Y.; Kobayashi, E.; Endo, T.; Nishiyama, M.; Horinouchi, S. Biosci. Biotech. Biochem. 1996, 60, 1279.) Table 14. Nitrilase II-catalyzed production of aryllactic acid derivatives and analogues 6a
as §1, with “Assay” for “Activity assays were conducted using 25 mM (-3 mg/mL) substrate, 0.1 mg/mL nitrilase in 0.25 mL of assay solution. Assay”

Molecule | TOF (turnover frequency)
3-pyridyl acetaldehyde cyanohydrin | 7.2 mol product/mol catalyst/sec
N#CC(O)Cc1cccs1 (stereo not shown) [2-thienyl acetaldehyde cyanohydrin] | 2.1 mol product/mol catalyst/sec
N#CC(O)Cc1ccsc1 (stereo not shown) [3-thienyl acetaldehyde cyanohydrin] | 1.4 mol product/mol catalyst/sec
N#CC(O)Cc1ccccc1Br (stereo not shown) [2-bromophenyl acetaldehyde cyanohydrin] | 76 mol product/mol catalyst/sec
Cc1ccccc1CC(O)C#N (stereo not shown) [2-methylphenyl acetaldehyde cyanohydrin] | 100 mol product/mol catalyst/sec
N#CC(O)Cc1ccccc1 (stereo not shown) [phenyl acetaldehyde cyanohydrin] | 16 mol product/mol catalyst/sec
N#CC(O)Cc1ccccn1 (stereo not shown) [2-pyridyl acetaldehyde cyanohydrin] | 6.6 mol product/mol catalyst/sec
Cc1cccc(CC(O)C#N)c1 (stereo not shown) [3-methylphenyl acetaldehyde cyanohydrin] | 13 mol product/mol catalyst/sec
N#CC(O)Cc1cccc2ccccc12 (stereo not shown) [1-napthyl acetaldehyde cyanohydrin] | 40 mol product/mol catalyst/sec
N#CC(O)Cc1cccc(F)c1 (stereo not shown) [3-tluorophenyl acetaldehyde cyanohydrin] | 14 mol product/mol catalyst/sec
N#CC(O)Cc1ccccc1F (stereo not shown) [2-fluorophenyl acetaldehyde cyanohydrin] | 97 mol product/mol catalyst/sec

test system: nitrilase expressing subclones SEQ ID NOS:101, 102, SEQ ID NOS:187, 188, SEQ ID NOS:29, 30; assay: Growth of nitrilase expressing subclones in the presence of HPA nitrile; assay type: cell-based; settings: cells grown at pH 7
Method: In preparation for assay automation, nitrilase expressing cells were added into microtiter plate containing M9 0.2% glucose,0.25 mM IPTG media by florescence activated cell sorting (FACS). Three nitrilase expressing subclones, and the empty vector control were evaluated: SEQ ID NOS:101, 102, SEQ ID NOS:187, 188, SEQ ID NOS:29, 30 and the empty vector. […] Thus colony picking is currently being evaluated as an alternative method to add cells into microtiter plates. The evaporative loss from an uncovered 1536-well microtiter plate is approximately 30% per day in the robot incubator (incubator conditions: 37°C at 85% relative humidity (RH)). Incubation in the 95% RH incubator reduced evaporative loss to 1% per day.
The ability of the three subclones to grow in the presence of up to 3.5 mM of nitrile was established using HPA nitrile. Growth rates were only slightly retarded (less that 30%). […] Only S was evaluated as the enzymes are S-selective. The reaction plate was read at 10 minute intervals, with 40 minutes showing the best linearity.

Molecule | concentration above which cell growth is significantly inhibited
CC(C)(CO)C(N)C#N (stereo not shown) [HPA, Hydroxypivaldehyde aminonitrile] | above 5 mM

same assay, conditions: cells grown at pH 8

Molecule | concentration above which growth was inhibited
CC(C)(CO)C(N)C#N (stereo not shown) [HPA, Hydroxypivaldehyde aminonitrile] | above 0.1 mM

same assay, conditions: in the presence of up to 3.5 mM of nitrile

Molecule | growth rates retarded [%]
CC(C)(CO)C(N)C#N (stereo not shown) [HPA, Hydroxypivaldehyde aminonitrile] | < 30

test system: nitrilase SEQ ID NOS:103, 104; assay: Effect of starting material and product on nitrilase activity (phenylacetaldehyde cyanohydrin hydrolysis); assay type: biochemical, Unknown (obtained from an environmental sample); settings: up to levels of 5 mM
Method: The effect of the process components on the activity of the enzymes was established by addition of the individual components to the enzymatic reaction. These components included the starting materials for the nitrile synthesis, aldehyde, cyanide and ammonium, as well as triethylamine, which is added in catalytic amounts to the nitrile synthesis reaction. The concentrations of the reactants were selected with possible process conditions in mind and were adapted to the levels of reactants used in the enzyme assays. In some cases, the solubility of the aldehydes and products was relatively low; in these cases, the highest level of solubility was added to the reactions as the highest level and 10% of this level as the lower value.
The enzymatic reactions were carried out under standard conditions, with addition of one or more of the following components: benzaldehyde, phenylglycine, phenylacetaldehyde, phenyllactic acid, 2-chlorobenzaldehyde, 2-chloromandelic acid, 5-hydroxypentanal, (S)-2-amino-6-hydroxy hexanoic acid, 4-methylleucine, KCN, Triethylamine, NH4Cl. Control reactions were performed under standard conditions, with no additive. The samples were analyzed by non-chiral HPLC.
SEQ ID NOS: 103, 104 was identified as a highly enantioselective nitrilase for the production of (S)- phenyllactic acid. […] The scaled-up enzymatic reaction with an enantiomeric excess (ee) of 95%. […]

Molecule | effect on the enzyme activity
O=CCc1ccccc1 [phenylacetaldehyde] | no effect

Source: patent EP2327766B1, “Nitrilases” (BASF Enzymes LLC, priority 2001, dated 2003)
